Measurements: patent US4791118A, “Quinolonecarboxylic acid derivatives and their preparation” (Kyorin Pharmaceutical Co., Ltd., priority 1985, dated 1988)
≈ marks a conversion by molar mass, not a printed value. Like-named read-outs stand apart in the source and are kept apart here.

Tests used:
S. pneumoniae 17 = assay: MIC, clinical isolates; assay type: cell-based; settings: Streptococcus pneumoniae; clinical isolate S. pneumoniae 17; 10^6 cells/ml
E. lentum GAI 5242 = assay: microbe, parasite or virus in culture; settings: Eggerthella lenta, GAI5242
P. aeruginosa IFO 12689 = assay: MIC, aerobic bacteria; assay type: cell-based; settings: Pseudomonas aeruginosa, IFO12689, Gram -, 10^6 cells/ml
[1] = test system: Alcaligenes faecalis 0114002; assay: MIC, aerobic bacteria
S. pyogenes 3102 = assay: MIC, clinical isolates; assay type: cell-based; settings: Streptococcus pyogenes; clinical isolate S. pyogenes 3102; 10^6 cells/ml
E. faecalis 49 = assay: MIC, clinical isolates; assay type: cell-based; settings: Enterococcus faecalis; clinical isolate E. faecalis 49; 10^6 cells/ml
S. pneumoniae 15 = assay: MIC, clinical isolates; assay type: cell-based; settings: Streptococcus pneumoniae; clinical isolate S. pneumoniae 15; 10^6 cells/ml
E. faecalis 401 = assay: MIC, clinical isolates; assay type: cell-based; settings: Enterococcus faecalis; clinical isolate E. faecalis 401; 10^6 cells/ml
[2] = test system: Pseudomonas aeruginosa V-1; assay: MIC, aerobic bacteria; settings: V1
[3] = test system: Enterobacter cloacae IID 977; assay: MIC, aerobic bacteria; settings: IID977
E. faecalis 214 = assay: MIC, clinical isolates; assay type: cell-based; settings: Enterococcus faecalis; clinical isolate E. faecalis 214; 10^6 cells/ml
[4] = test system: Proteus vulgaris IFO 3167; assay: MIC, aerobic bacteria; assay type: cell-based; settings: IFO3167, Gram -, 10^6 cells/ml
Excerpt: (§1) | Organism (10^6 cells/ml)

[5] = test system: Serratia marcescens IID 618; assay: MIC, aerobic bacteria; assay type: cell-based; settings: IID618, Gram -, 10^6 cells/ml
Excerpt: as §1

E. coli ATCC 10536 = assay: MIC, aerobic bacteria; assay type: cell-based; settings: Escherichia coli, ATCC10536, Gram -, 10^6 cells/ml
Excerpt: as §1

[6] = test system: Citrobacter freundii IID 976; assay: MIC, aerobic bacteria; assay type: cell-based; settings: IID976, Gram -, 10^6 cells/ml
Excerpt: as §1

S. epidermidis IID 866 = assay: MIC, aerobic bacteria; assay type: cell-based; settings: Staphylococcus epidermidis, IID866, Gram +, 10^6 cells/ml
Excerpt: as §1

[7] = test system: Escherichia coli NIHJ JC-2; assay: MIC, aerobic bacteria; assay type: cell-based; settings: NIHJJC2, Gram -, 10^6 cells/ml
Excerpt: as §1

P. mirabilis IID 992 = assay: MIC, aerobic bacteria; assay type: cell-based; settings: Proteus mirabilis, IID992, Gram -, 10^6 cells/ml
Excerpt: as §1

C. ramosum = assay: MIC, anaerobic bacteria; settings: Thomasclavelia ramosa
S. pyogenes IID 692 = assay: MIC, aerobic bacteria; assay type: cell-based; settings: Streptococcus pyogenes, IID692, Gram +, 10^6 cells/ml
[8] = test system: Streptococcus pyogenes (S-8); assay: MIC, aerobic bacteria; assay type: cell-based; settings: Gram +, 10^6 cells/ml
E. coli ML 4707 = assay: MIC, aerobic bacteria; assay type: cell-based; settings: Escherichia coli, ML4707, Gram -, 10^6 cells/ml
S. aureus Smith = assay: microbe, parasite or virus in culture; settings: Staphylococcus aureus
S. pyogenes 3107 = assay: MIC, clinical isolates; assay type: cell-based; settings: Streptococcus pyogenes; clinical isolate S. pyogenes 3107; 10^6 cells/ml
S. pneumoniae IID 552 = assay: MIC, aerobic bacteria; assay type: cell-based; settings: Streptococcus pneumoniae, IID552, Gram +, 10^6 cells/ml
S. pyogenes 4372 = assay: MIC, clinical isolates; assay type: cell-based; settings: Streptococcus pyogenes; clinical isolate S. pyogenes 4372; 10^6 cells/ml
[9] = test system: Propionibacterium acens 11828; assay: MIC, anaerobic bacteria; assay type: cell-based
[10] = test system: Salmonella enteritidis IID 604; assay: microbe, parasite or virus in culture; settings: Salmonella enterica
F. varium KYA 8501 = assay: microbe, parasite or virus in culture; settings: Fusobacterium varium, KYA8501
E. faecalis 402 = assay: microbe, parasite or virus in culture; settings: Enterococcus faecalis
[11] = test system: B. thetaiotaomicron (0661); assay: MIC, anaerobic bacteria; assay type: cell-based; settings: Bacteroides thetaiotaomicron, Gram -, 10^6 cells/ml
S. agalactiae 4368 = assay: MIC, clinical isolates; assay type: cell-based; settings: Streptococcus agalactiae; clinical isolate S. agalactiae 4368; 10^6 cells/ml
P. aeruginosa IID 1210 = assay: MIC, aerobic bacteria; assay type: cell-based; settings: Pseudomonas aeruginosa, IID1210, Gram -, 10^6 cells/ml
S. pyogenes 3131 = assay: MIC, clinical isolates; assay type: cell-based; settings: Streptococcus pyogenes; clinical isolate S. pyogenes 3131; 10^6 cells/ml
[12] = test system: Eubacterium limosum KYA 8486; assay: MIC, anaerobic bacteria; settings: KYA8486
[13] = test system: B. melaninogenicus GAI 0410; assay: MIC, anaerobic bacteria; settings: Prevotella intermedia, GAI0410
C. perfringens KYA 13123 = assay: microbe, parasite or virus in culture; assay type: cell-based; settings: Clostridium perfringens, KYA13123
S. pneumoniae 2054 = assay: MIC, clinical isolates; assay type: cell-based; settings: Streptococcus pneumoniae; clinical isolate S. pneumoniae 2054; 10^6 cells/ml

O=C(O)c1cn(C2CC2)c2c(F)c(N3CCC(CNCCF)C3)c(F)cc2c1=O (stereo not shown) [Exp. 2, 1-Cyclopropyl-7-[3-(2-fluoroethyl)aminomethyl-1-pyrrolidinyl]-6,8-difluoro-1,4-dihydro-4-oxo-3-quinolinecarboxylic acid]
MIC (S. pneumoniae 17): 0.05 µg/mL (≈ 0.122 µM)
MIC (E. lentum GAI 5242): 0.39 µg/mL (≈ 0.953 µM)
MIC (P. aeruginosa IFO 12689): 1.56 µg/mL (≈ 3.81 µM)
MIC [1]: 0.39 µg/mL (≈ 0.953 µM)
MIC (S. pyogenes 3102): 0.05 µg/mL (≈ 0.122 µM)
MIC (E. faecalis 49): 0.05 µg/mL (≈ 0.122 µM)
MIC (S. pneumoniae 15): 0.05 µg/mL (≈ 0.122 µM)
MIC (E. faecalis 401): 0.1 µg/mL (≈ 0.244 µM)
MIC [2]: 0.39 µg/mL (≈ 0.953 µM)
MIC [3]: 0.1 µg/mL (≈ 0.244 µM)
MIC (E. faecalis 214): 0.05 µg/mL (≈ 0.122 µM)
MIC [4]: 0.05 µg/mL (≈ 0.122 µM)
MIC [5]: 0.2 µg/mL (≈ 0.489 µM)
MIC (E. coli ATCC 10536): 0.025 µg/mL (≈ 0.0611 µM)
MIC [6]: 0.05 µg/mL (≈ 0.122 µM)
MIC (S. epidermidis IID 866): 0.025 µg/mL (≈ 0.0611 µM)
MIC [7]: 0.025 µg/mL (≈ 0.0611 µM)
MIC (P. mirabilis IID 992): 0.05 µg/mL (≈ 0.122 µM)
MIC (C. ramosum): 0.39 µg/mL (≈ 0.953 µM)
MIC (S. pyogenes IID 692): 0.1 µg/mL (≈ 0.244 µM)
MIC [8]: 0.05 µg/mL (≈ 0.122 µM)
MIC (E. coli ML 4707): 0.025 µg/mL (≈ 0.0611 µM)
MIC (S. aureus Smith): 0.0125 µg/mL (≈ 0.0305 µM)
MIC (S. pyogenes 3107): 0.05 µg/mL (≈ 0.122 µM)
MIC (S. pneumoniae IID 552): 0.05 µg/mL (≈ 0.122 µM)
MIC (S. pyogenes 4372): 0.05 µg/mL (≈ 0.122 µM)
MIC ([9]; Propionibacterium acens 11828, anaerobic, Gram +, 10^6 cells/ml, read-out: MIC): 1.56 µg/mL (≈ 3.81 µM)
MIC [10]: 0.1 µg/mL (≈ 0.244 µM)
MIC (F. varium KYA 8501): 0.78 µg/mL (≈ 1.91 µM)
MIC (E. faecalis 402): 0.1 µg/mL (≈ 0.244 µM)
MIC [11]: 0.78 µg/mL (≈ 1.91 µM)
MIC (S. agalactiae 4368): 0.05 µg/mL (≈ 0.122 µM)
MIC (P. aeruginosa IID 1210): 1.56 µg/mL (≈ 3.81 µM)
MIC (S. pyogenes 3131): 0.05 µg/mL (≈ 0.122 µM)
MIC [12]: 0.78 µg/mL (≈ 1.91 µM)
MIC [13]: 0.39 µg/mL (≈ 0.953 µM)
MIC (C. perfringens KYA 13123): 0.1 µg/mL (≈ 0.244 µM)
MIC (S. pneumoniae 2054): 0.05 µg/mL (≈ 0.122 µM)

O=C(O)c1cn(C2CC2)c2c(Cl)c(N3CCC(CNCCF)C3)c(F)cc2c1=O (stereo not shown) [Exp. 1, 8-Chloro-1-cyclopropyl-6-fluoro-7-[3-(2-fluoroethyl)aminomethyl-1-pyrrolidinyl]-1,4-dihydro-4-oxo-3-quinolinecarboxylic acid]
MIC (S. pneumoniae 17): 0.025 µg/mL (≈ 0.0587 µM)
MIC (E. lentum GAI 5242): 0.1 µg/mL (≈ 0.235 µM)
MIC (P. aeruginosa IFO 12689): 1.56 µg/mL (≈ 3.66 µM)
MIC [1]: 0.39 µg/mL (≈ 0.916 µM)
MIC (S. pyogenes 3102): 0.025 µg/mL (≈ 0.0587 µM)
MIC (E. faecalis 49): 0.05 µg/mL (≈ 0.117 µM)
MIC (S. pneumoniae 15): 0.025 µg/mL (≈ 0.0587 µM)
MIC (E. faecalis 401): 0.05 µg/mL (≈ 0.117 µM)
MIC [2]: 0.39 µg/mL (≈ 0.916 µM)
MIC [3]: 0.1 µg/mL (≈ 0.235 µM)
MIC (E. faecalis 214): 0.05 µg/mL (≈ 0.117 µM)
MIC [4]: 0.025 µg/mL (≈ 0.0587 µM)
MIC [5]: 0.1 µg/mL (≈ 0.235 µM)
MIC (E. coli ATCC 10536): 0.0125 µg/mL (≈ 0.0294 µM)
MIC [6]: 0.05 µg/mL (≈ 0.117 µM)
MIC (S. epidermidis IID 866): 0.0125 µg/mL (≈ 0.0294 µM)
MIC [7]: 0.0125 µg/mL (≈ 0.0294 µM)
MIC (P. mirabilis IID 992): 0.025 µg/mL (≈ 0.0587 µM)
MIC (C. ramosum): 0.1 µg/mL (≈ 0.235 µM)
MIC (S. pyogenes IID 692): 0.05 µg/mL (≈ 0.117 µM)
MIC [8]: 0.025 µg/mL (≈ 0.0587 µM)
MIC (E. coli ML 4707): 0.0125 µg/mL (≈ 0.0294 µM)
MIC (S. aureus Smith): ≤ 0.0063 µg/mL
MIC (S. pyogenes 3107): 0.025 µg/mL (≈ 0.0587 µM)
MIC (S. pneumoniae IID 552): 0.025 µg/mL (≈ 0.0587 µM)
MIC (S. pyogenes 4372): 0.025 µg/mL (≈ 0.0587 µM)
MIC ([9]; Propionibacterium, 11828): 0.78 µg/mL (≈ 1.83 µM)
MIC [10]: 0.1 µg/mL (≈ 0.235 µM)
MIC (F. varium KYA 8501): 0.39 µg/mL (≈ 0.916 µM)
MIC (E. faecalis 402): 0.1 µg/mL (≈ 0.235 µM)
MIC [11]: 0.2 µg/mL (≈ 0.47 µM)
MIC (S. agalactiae 4368): 0.025 µg/mL (≈ 0.0587 µM)
MIC (P. aeruginosa IID 1210): 1.56 µg/mL (≈ 3.66 µM)
MIC (S. pyogenes 3131): 0.025 µg/mL (≈ 0.0587 µM)
MIC [12]: 0.39 µg/mL (≈ 0.916 µM)
MIC [13]: 0.1 µg/mL (≈ 0.235 µM)
MIC (C. perfringens KYA 13123): ≤ 0.05 µg/mL
MIC (S. pneumoniae 2054): 0.025 µg/mL (≈ 0.0587 µM)
